28 molecules from patent US20070027118A1 (priority 2005, published 2007) can be followed below.

For orientation: Ki means a measure of affinity in units of concentration, obtained from inhibition or displacement. Low readings indicate higher affinity, high ones lower affinity.

A value given as a limit tells only on which side of the number the result lay.

For test [1], the target named is T1, 11β-hsd-1 enzyme (Homo sapiens, UniProt P28845). As to the kind of experiment: biochemical. The method, then:
The 11β-hsd-1 assay was performed in a 100 mM Triethanolamine buffer pH 8.0, containing 200 mM NaCl, 0.02% n-dodecyl β-D-maltoside, 5% glycerol, 5 mM β-mercaptoethanol. A typical reaction for the determination of Kiapp values was carried at R.T. in a Corning® u-bottom 96-well plate and is described as follows: 11β-hsd-1 enzyme (5 nM, final concentration) was pre-incubated in the presence of the inhibitor and NADPH (500 μM, final concentration) for at least 30 minutes in the assay buffer. When pre-incubation was completed, the reaction was initiated by adding the regenerating system (2 mM Glucose-6-Phosphate, 1U/mL Glucose-6-Phosphate dehydrogenase, and 6 mM MgCl2, all the concentration reported are final in the assay buffer), and 3H-cortisone (200 nM, final concentration). After 60 minutes, 60 μL of the assay mixture was transferred to a second 96-well plate and mixed with an equal volume of dimethylsulfoxide to stop the reaction. A 15 μL aliquot from the reaction mixture was loaded into a C-18 column (Polaris C18-A, 50×4.6 mm, 5 μ, 180 Angstrom from Varian) connected to an automated High-throughput Liquid Chromatography instrument developed by Cohesive Technologies Inc, of Franklin, Mass. USA, with a β-RAM model 3 Radio-HPLC detector from IN/US, of Tampa, Fla. USA. The substrate and product peaks were separated by using an isocratic mixture of 43:57 methanol to water (v/v) at a flow rate of 1.0 mL/min.
The initial reaction velocities were measured by stopping the reaction at 60 min and by measuring the area of product formation in the absence and the presence of various concentrations of inhibitors. The Kiapp values were determined using the equation for tight-binding inhibitor developed by Morrison, J. F. (Morrison J. F. Biochim BiophysActa. 1969; 185: 269-86).
The radiolabeled [1,2-3H]-cortisone is commercially available from American Radiolabeled Chemicals Inc of St. Louis, Mo. USA. NADPH, Glucose-6-Phosphate, and Glucose-6-Phosphate dehydrogenase were purchased from Sigma®.
(Morrison J. F. Biochim Biophys Acta. 1969; 185: 269-86).

Test [2] addresses T1, 11β-hsd-1 enzyme. As to the kind of experiment: biochemical. The settings on record: for inhibition / inhibition at 100 µM: read-out: % Inh @ 0.1 mM; for inhibition at 0.1 µM: read-out: % Inh @ 0.1 μM; for inhibition at 100 µM: Table 2, inhibitor 0.1 mM as printed. The procedure: Percentage of inhibition was determined in a 100 mM Triethanolamine buffer, pH 8.0, 200 mM NaCl, 0.02% n-dodecyl β-D-maltoside and 5 mM β-ME. A typical reaction was carried on a Corning® u-bottom 96-well plate and is described as follows: 11β-hsd-1 enzyme (5 nM, final concentration) was pre-incubated in the presence of the inhibitor and NADPH (500 μM, final concentration) for at least 30 minutes
in the assay buffer. When pre-incubation was completed, the reaction was initiated by adding the regenerating system (2 mM Glucose-6-Phosphate, 1U/mL Glucose-6-Phosphate dehydrogenase, and 6 mM MgCl2, all the concentration reported are final in the assay buffer), and 3H-cortisone (200 nM, final concentration). After 60 minutes, 60 μL of the assay mixture was transferred to a second 96-well plate and mixed with an equal volume of dimethylsulfoxide to stop the reaction. A 15 μL aliquot from the reaction mixture was loaded into a C-18 column (Polaris C18-A, 50×4.6 mm, 5 μ, 180 Angstrom from Varian) connected to an automated High-throughput Liquid Chromatography instrument developed by Cohesive Technologies Inc of Franklin, Mass., with a […] model 3 Radio-HPLC detector from IN/US of Tampa, Fla. The substrate and product peaks were separated by using an isocratic mixture of 43:57 methanol to water (v/v) at a flow rate of 1.0 mL/min.
Percent Inhibition was calculated based on the following equation: (1-(3H-Cortisol peak area in the […] of inhibitor)×100).

T1 sequence (P28845 whole entry, species assumed): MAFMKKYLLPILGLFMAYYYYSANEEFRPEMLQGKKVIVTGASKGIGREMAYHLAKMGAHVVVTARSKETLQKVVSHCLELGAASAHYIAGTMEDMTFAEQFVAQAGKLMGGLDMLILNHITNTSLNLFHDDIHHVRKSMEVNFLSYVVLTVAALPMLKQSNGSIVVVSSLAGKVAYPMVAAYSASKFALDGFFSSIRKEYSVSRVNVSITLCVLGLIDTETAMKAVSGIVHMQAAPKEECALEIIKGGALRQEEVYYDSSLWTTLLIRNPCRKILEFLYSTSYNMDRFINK

In the case of `Cc1cccc(NS(=O)(=O)N2CCN(c3ncccn3)CC2)n1` [Example 125, N-(6-methylpyridin-2-yl)-4-pyrimidin-2-ylpiperazine-1-sulfonamide], on 11β-hsd-1 enzyme [1], the affinity corresponds to a Ki of 28.5 nM. Further, the inhibition at 11β-hsd-1 enzyme [2] is 75.1%.
For `Cc1cccc(NS(=O)(=O)N2CCCC(COCC3CC3)CC2)n1` (centres unmarked) [Example 86, 4-[(cyclopropylmethoxy)-methyl]-N-(6-methylpyridin-2-yl)azepane-1-sulfonamide] the same measures were 98 nM and 87.6%.
Regarding `CCc1cccc(NS(=O)(=O)N2CCC(c3ccc(F)cc3)CC2)n1` [Example 68], affinity at 11β-hsd-1 enzyme [1] was put at a Ki of 5.4 nM. In addition, the inhibition at 0.1 µM at 11β-hsd-1 enzyme [2] came out at 96.6%.
The molecule `Cc1ccc(C2(C)CN(S(=O)(=O)Nc3ccc4ccccc4n3)CCO2)cc1` (centres unmarked) [Example 87, 2-methyl-2-(4-methylphenyl)-N-quinolin-2-ylmorpholine-4-sulfonamide] yielded an inhibitory constant (Ki) on 11β-hsd-1 enzyme [1] of 25 nM. Also, on 11β-hsd-1 enzyme [2], the inhibition worked out at 85.2%.
Turning to `O=S(=O)(Nc1ccc2ccccc2n1)N1CCCCCC1` [Example 157, N-quinolin-2-ylazepane-1-sulfonamide], affinity at 11β-hsd-1 enzyme [1] was put at a Ki of 32 nM. Also, the inhibition at 100 µM at 11β-hsd-1 enzyme [2] is 100%.
Turning to `C[C@@H]1CN(S(=O)(=O)Nc2cccc(CO)n2)CCN1c1ccc(C#N)cn1` [Example 30], the Ki on 11β-hsd-1 enzyme [1] is > 1 nM. Also, the inhibition at 0.1 µM at 11β-hsd-1 enzyme [2] amounted to 100%.
`CCc1cccc(NS(=O)(=O)N2CCC(Cc3ccccc3)CC2)n1` [Example 116, 4-benzyl-N-(6-ethylpyridin-2-yl)piperidine-1-sulfonamide] had an inhibitory constant (Ki) at 11β-hsd-1 enzyme [1] of 18 nM. Further, the inhibition at 11β-hsd-1 enzyme [2] was found to be 100%.
At 11β-hsd-1 enzyme [1], `Cc1cccc(NS(=O)(=O)N2CCN(c3ncc(C(F)(F)F)cc3Cl)CC2)n1` [Example 128, 4-[3-chloro-5-(trifluoromethyl)pyridin-2-yl]-N-(6-methylpyridin-2-yl)piperazine-1-sulfonamide] came in with a Ki of 13 nM. In addition, at 11β-hsd-1 enzyme [2], the inhibition came out at 100%.
As for `Cc1cccc(NS(=O)(=O)N2CCCN(c3nc4cc(Cl)ccc4o3)CC2)n1` [Example 153, 4-(5-chloro-13-benzoxazol-2-yl)-N-(6-methylpyridin-2-yl)-14-diazepane-1-sulfonamide], the Ki on 11β-hsd-1 enzyme [1] stood at 8.2 nM. At 11β-hsd-1 enzyme [2], the inhibition at 100 µM came to 100%.
Regarding `CCc1cccc(NS(=O)(=O)N2CCCC(OCc3ccccc3)C2)n1` (centres unmarked) [Example 88, 3-(benzyloxy)-N-(6-ethylpyridin-2-yl)piperidine-1-sulfonamide], at 11β-hsd-1 enzyme [1], the Ki was 52 nM. Further, the inhibition on 11β-hsd-1 enzyme [2] was 77.1%.
`CCN(CC)C(=O)Cc1cccc(NS(=O)(=O)N2CCc3ccccc3CC2)n1` [Example 17, N,N-diethyl-2-{6-[(1,2,4,5-tetrahydro-3H-3-benzazepin-3-ylsulfonyl)amino]pyridin-2-yl}acetamide] displayed a Ki on 11β-hsd-1 enzyme [1] of 5.7 nM. The inhibition at 0.1 µM on 11β-hsd-1 enzyme [2] turned out to be 100%.
Take `CCc1cccc(NS(=O)(=O)N2CCN(c3cccc(OC)n3)CC2)n1` [Example 183, N-(6-ethylpyridin-2-yl)-4-(6-methoxypyridin-2-yl)piperazine-1-sulfonamide]: at 11β-hsd-1 enzyme [1], affinity was put at a Ki of 11.5 nM. For the same molecule, the inhibition at 100 µM at 11β-hsd-1 enzyme [2] was determined as 100%.
On to `CCc1cccc(NS(=O)(=O)N2CCCC(c3ccnc(N4CCCC4)n3)C2)n1` (centres unmarked) [Example 96, N-(6-ethylpyridin-2-yl)-3-(2-pyrrolidin-1-ylpyrimidin-4-yl)piperidine-1-sulfanamide], for which, on 11β-hsd-1 enzyme [1], the affinity, expressed as Ki, was 61 nM. At 11β-hsd-1 enzyme [2], the inhibition came out at 71.6%.
For the molecule `CCc1cccc(NS(=O)(=O)N2CCCC(COCC3CC3)CC2)n1` (centres unmarked) [Example 95, 4-[(cyclopropylmethoxy)-methyl]-N-(6-ethylpyridin-2-yl)azepane-1-sulfonamide], the Ki at 11β-hsd-1 enzyme [1] is 82 nM. Moreover, the inhibition at 11β-hsd-1 enzyme [2] amounted to 86.2%.
In turn, `O=S(=O)(Nc1ccc2ccccc2n1)N1CCCN(c2nc3cc(Cl)ccc3o2)CC1` [Example 180, 4-(5-chloro-13-benzoxazol-2-yl)-N-quinolin-2-yl-14-diazepane-1-sulfonamide] showed an inhibitory constant (Ki) at 11β-hsd-1 enzyme [1] of 20 nM. On 11β-hsd-1 enzyme [2], the inhibition came out at 100%.
On to `CCc1cccc(NS(=O)(=O)N2CCCN(c3ncccc3C#N)CC2)n1` [Example 187, 4-(3-cyanopyridin-2-yl)-N-(6-ethylpyridin-2-yl)-14-diazepane-1-sulfonamide], for which the Ki on 11β-hsd-1 enzyme [1] came to 160 nM. In addition, on 11β-hsd-1 enzyme [2], the inhibition worked out at 68.8%.
For the molecule `N#Cc1ccc(N2CCN(S(=O)(=O)Nc3ccc4ccccc4n3)CC2)nc1` [Example 13], the affinity at 11β-hsd-1 enzyme [1], expressed as Ki, was 7.3 nM. On 11β-hsd-1 enzyme [2], the inhibition at 0.1 µM came out at 94.9%.
The molecule `Cc1cccc(NS(=O)(=O)N2CCN(c3ccc(C#N)cn3)[C@H](C)C2)n1` [Example 23, (3R)-4-(5-cyanopyridin-2-yl)-3-methyl-N-(6-methylpyridin-2-yl)piperazine-1-sulfonamide] registered a Ki at 11β-hsd-1 enzyme [1] of 19.8 nM. Also, at 11β-hsd-1 enzyme [2], the inhibition at 0.1 µM is 100%.
The matching figures for `Cc1cc(Cl)cnc1N1CCN(S(=O)(=O)Nc2ccc3ncccc3n2)CC1` [Example 37, 4-(5-chloro-3-methylpyridin-2-yl)-N-1,5-naphthyridin-2-ylpiperazine-1-sulfonamide]: 100 nM and 80%.
With `CCc1cccc(NS(=O)(=O)N2CCC(Oc3ccc(Cl)cc3)CC2)n1` [Example 112, 4-(4-chlorophenoxy)-N-(6-ethylpyridin-2-yl)pipendine-1-sulfonamide], the affinity at 11β-hsd-1 enzyme [1] corresponds to a Ki of 18 nM. Besides, the inhibition at 11β-hsd-1 enzyme [2] was found to be 100%.
The molecule `O=S(=O)(Nc1ccc2ccccc2n1)N1CCN(c2nc3ncccc3o2)CC1` [Example 176, 4-[13]oxazolo[45-b]pyridin-2-yl-N-quinolin-2-ylpiperazine-1-sulfonamide] gave a Ki at 11β-hsd-1 enzyme [1] of 110 nM. Moreover, the inhibition at 11β-hsd-1 enzyme [2] turned out to be 70.4%.
The matching figures for `CCc1cccc(NS(=O)(=O)N2CCN(c3ncc(-c4ccc(OC)cc4)cn3)CC2)n1` [Example 144, N-(6-ethylpyridin-2-yl)-4-[5-(4-methoxyphenyl)pyrimidin-2-yl]piperazine-1-sulfonamide]: 1 nM and 100%.
`CCCC1CCCCN1S(=O)(=O)Nc1cccc(CC)n1` (centres unmarked) [Example 103, N-(6-ethylpyridin-2-yl)-2-propylpiperidine-1-sulfonamide] displayed an inhibition constant Ki at 11β-hsd-1 enzyme [1] of 24 nM. Besides, the inhibition at 11β-hsd-1 enzyme [2] worked out at 82.2%.
`CCc1cccc(NS(=O)(=O)N2CCC(Cc3ccc(F)cc3)CC2)n1` [Example 124, N-(6-ethylpyridin-2-yl)-4-(4-fluorobenzyl)pipendine-1-sulfonamide] had an inhibitory constant (Ki) on 11β-hsd-1 enzyme [1] of 7 nM. Besides, the inhibition at 100 µM on 11β-hsd-1 enzyme [2] stood at 88.4%.
For the molecule `Cc1cc(N)nc(NS(=O)(=O)N2CCN(c3ncc(F)cn3)CC2)c1` [Example 31, N-(6-amino-4-methylpyridin-2-yl)-4-(5-fluoropyrimidin-2-yl)piperazine-1-sulfonamide], the inhibition constant (Ki) at 11β-hsd-1 enzyme [1] worked out at 11 nM. Besides, the inhibition at 0.1 µM on 11β-hsd-1 enzyme [2] amounted to 100%.
In turn, `CCc1cccc(NS(=O)(=O)N2CCCCCC2)n1` [Example 197, N-(6-ethylpyridin-2-yl)azepane-1-sulfonamide] had a Ki on 11β-hsd-1 enzyme [1] of 35 nM. Besides, the inhibition on 11β-hsd-1 enzyme [2] was 79.5%.
For `CCOC(=O)N1CCN(S(=O)(=O)Nc2cccc(C)n2)CC1` [Example 129, ethyl 4-{[(6-methylpyridin-2-yl)amino]sulfonyl}piperazine-1-carboxylate] the same measures were 28 nM and 86.6%.
In turn, `O=C1CN(S(=O)(=O)Nc2ccc3ccccc3n2)CCN1Cc1ccc(F)cc1` [Example 173, 4-(4-fluorobenzyl)-3-oxo-N-quinolin-2-ylpiperazine-1-sulfonamide] returned a Ki on 11β-hsd-1 enzyme [1] of 130 nM. Moreover, on 11β-hsd-1 enzyme [2], the inhibition at 100 µM came to 75.5%.
